*1 amine or outer side, *2 acyl side, *3 side chain or, on linkers, in order; H or OH if unused. Where a SMILES comes first, the peptide text is derived from it. Bridges are numbered along the chain shown (N, C = ends). [ ]: non-standard residue; d: D form. The star is where a group is joined. hTyr(3S-OH,4S-OH,3'-OSO3H) = N[C@H](C(=O)O)[C@H](O)[C@@H](O)c1ccc(O)c(OS(=O)(=O)O)c1; Orn(4R-OH,5R-OH) = O=C([C@H](C[C@@H](O)[C@@H](O)N[*:3])N[*:1])[*:2]; Pro(3S-OH,4S-Me) = C[C@H]1CN[C@H](C(=O)O)[C@H]1O; X1 = CCCCCOc1ccc(-c2cc(-c3ccc(C(=O)*)cc3)no2)cc1; Gln(3R-OH) = NC(=O)C[C@@H](O)[C@H](N)C(=O)O; Hyp = O=C(O)[C@@H]1C[C@@H](O)CN1
Tests used:
[1] = biological target: Growth hormone secretagogue receptor type 1 (Homo sapiens, UniProt Q92847)
Growth hormone secretagogue receptor type 1, sequence (Q92847 whole entry): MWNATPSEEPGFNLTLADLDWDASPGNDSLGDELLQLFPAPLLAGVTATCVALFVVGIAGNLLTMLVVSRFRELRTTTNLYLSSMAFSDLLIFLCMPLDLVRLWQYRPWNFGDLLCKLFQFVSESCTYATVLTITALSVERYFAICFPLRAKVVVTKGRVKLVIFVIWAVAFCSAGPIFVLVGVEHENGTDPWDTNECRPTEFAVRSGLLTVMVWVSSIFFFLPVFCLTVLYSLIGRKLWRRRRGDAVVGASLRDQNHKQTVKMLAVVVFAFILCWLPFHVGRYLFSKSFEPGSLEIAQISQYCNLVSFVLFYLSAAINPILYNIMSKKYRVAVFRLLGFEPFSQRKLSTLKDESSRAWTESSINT

[2] = biological target: T1, 5-hydroxytryptamine receptor 2C (Homo sapiens, UniProt P28335)
T1 sequence (P28335 whole entry): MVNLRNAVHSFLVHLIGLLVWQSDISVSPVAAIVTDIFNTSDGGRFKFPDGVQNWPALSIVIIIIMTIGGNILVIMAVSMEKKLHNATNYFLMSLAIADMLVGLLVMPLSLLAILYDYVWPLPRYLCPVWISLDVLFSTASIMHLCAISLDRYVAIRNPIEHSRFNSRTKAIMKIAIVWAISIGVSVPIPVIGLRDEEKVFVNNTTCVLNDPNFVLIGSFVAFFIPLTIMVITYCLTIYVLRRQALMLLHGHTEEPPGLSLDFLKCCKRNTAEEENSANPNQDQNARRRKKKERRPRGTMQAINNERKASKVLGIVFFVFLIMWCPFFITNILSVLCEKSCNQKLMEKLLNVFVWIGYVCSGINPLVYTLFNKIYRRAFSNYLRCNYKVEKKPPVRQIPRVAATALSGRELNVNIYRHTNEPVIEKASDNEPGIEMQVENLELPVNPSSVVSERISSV

[3] = biological target: T2, Cholecystokinin receptor type A (Homo sapiens, UniProt P32238)
T2 sequence (P32238 whole entry): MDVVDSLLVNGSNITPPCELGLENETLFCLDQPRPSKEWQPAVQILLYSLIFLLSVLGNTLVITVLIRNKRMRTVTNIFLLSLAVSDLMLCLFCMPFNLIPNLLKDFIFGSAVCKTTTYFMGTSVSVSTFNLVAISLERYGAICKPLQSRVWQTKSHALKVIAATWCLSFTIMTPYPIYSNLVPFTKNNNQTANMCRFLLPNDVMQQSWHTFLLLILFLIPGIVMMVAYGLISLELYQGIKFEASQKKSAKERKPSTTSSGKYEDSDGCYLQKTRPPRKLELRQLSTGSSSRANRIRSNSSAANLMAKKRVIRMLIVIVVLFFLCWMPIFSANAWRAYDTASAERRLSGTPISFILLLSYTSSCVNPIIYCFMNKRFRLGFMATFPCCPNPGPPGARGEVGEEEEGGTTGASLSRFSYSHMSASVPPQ

[4] = biological target: T3, 5-hydroxytryptamine receptor 1A (Homo sapiens, UniProt P08908); format: functional, cell-based
T3 sequence (P08908 whole entry): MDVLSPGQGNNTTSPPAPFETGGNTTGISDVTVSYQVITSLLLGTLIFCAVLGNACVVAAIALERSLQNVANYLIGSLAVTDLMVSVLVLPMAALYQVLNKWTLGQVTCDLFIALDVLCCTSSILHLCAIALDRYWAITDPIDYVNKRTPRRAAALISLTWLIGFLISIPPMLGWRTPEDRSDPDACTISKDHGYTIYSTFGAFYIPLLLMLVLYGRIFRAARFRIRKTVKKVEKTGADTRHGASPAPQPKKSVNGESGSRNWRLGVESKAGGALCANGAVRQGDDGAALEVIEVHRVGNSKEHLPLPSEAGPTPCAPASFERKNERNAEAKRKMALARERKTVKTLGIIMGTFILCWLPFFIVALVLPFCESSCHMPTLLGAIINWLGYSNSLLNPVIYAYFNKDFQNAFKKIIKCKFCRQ

[5] = biological target: Gamma-aminobutyric acid receptor subunit alpha-1 (Rattus norvegicus, UniProt P62813); format: functional
Gamma-aminobutyric acid receptor subunit alpha-1, sequence (P62813 whole entry): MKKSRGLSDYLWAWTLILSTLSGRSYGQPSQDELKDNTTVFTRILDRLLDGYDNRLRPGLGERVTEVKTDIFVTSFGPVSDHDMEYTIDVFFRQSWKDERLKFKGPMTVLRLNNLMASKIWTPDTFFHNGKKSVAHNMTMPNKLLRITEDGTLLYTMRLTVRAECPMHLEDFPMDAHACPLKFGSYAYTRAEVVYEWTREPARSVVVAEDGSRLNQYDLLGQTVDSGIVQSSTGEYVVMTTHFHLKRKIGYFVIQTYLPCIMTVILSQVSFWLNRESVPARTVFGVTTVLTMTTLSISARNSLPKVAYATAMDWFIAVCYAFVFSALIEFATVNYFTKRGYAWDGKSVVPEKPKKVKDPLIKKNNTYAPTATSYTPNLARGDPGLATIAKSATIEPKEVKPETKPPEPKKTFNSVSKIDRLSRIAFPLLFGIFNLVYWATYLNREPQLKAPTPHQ

[6] = biological target: T4, Alpha-1A adrenergic receptor (Homo sapiens, UniProt P35348); format: functional, cell-based
T4 sequence (P35348 whole entry): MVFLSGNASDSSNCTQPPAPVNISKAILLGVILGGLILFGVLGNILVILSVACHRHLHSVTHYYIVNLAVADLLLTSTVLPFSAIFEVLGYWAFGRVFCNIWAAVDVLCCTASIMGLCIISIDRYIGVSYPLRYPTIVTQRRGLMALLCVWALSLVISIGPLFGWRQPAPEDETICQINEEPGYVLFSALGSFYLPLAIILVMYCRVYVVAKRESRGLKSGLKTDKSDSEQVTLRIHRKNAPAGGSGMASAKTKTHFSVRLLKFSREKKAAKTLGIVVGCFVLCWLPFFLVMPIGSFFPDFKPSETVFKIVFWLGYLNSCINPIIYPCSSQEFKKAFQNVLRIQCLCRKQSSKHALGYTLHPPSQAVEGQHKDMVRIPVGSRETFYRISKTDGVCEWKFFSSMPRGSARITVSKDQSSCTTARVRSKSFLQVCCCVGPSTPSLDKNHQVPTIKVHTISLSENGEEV

Adenosine receptor A2a = Adenosine receptor A2a (Homo sapiens, UniProt P29274)
Adenosine receptor A2a, sequence (P29274 whole entry): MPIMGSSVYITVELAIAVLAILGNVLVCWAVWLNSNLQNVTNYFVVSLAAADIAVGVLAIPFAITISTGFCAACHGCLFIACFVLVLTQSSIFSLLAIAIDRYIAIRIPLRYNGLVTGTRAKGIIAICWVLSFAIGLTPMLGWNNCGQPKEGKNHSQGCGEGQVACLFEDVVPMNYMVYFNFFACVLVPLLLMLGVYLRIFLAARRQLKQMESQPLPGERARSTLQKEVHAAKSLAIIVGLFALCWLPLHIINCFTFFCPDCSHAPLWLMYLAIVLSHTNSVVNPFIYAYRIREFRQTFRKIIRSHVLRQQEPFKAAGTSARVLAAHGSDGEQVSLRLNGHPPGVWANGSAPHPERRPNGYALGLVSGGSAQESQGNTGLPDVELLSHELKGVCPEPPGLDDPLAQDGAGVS

[7] = biological target: T5, Muscarinic acetylcholine receptor M1 (Homo sapiens, UniProt P11229); format: functional, cell-based
T5 sequence (P11229 whole entry): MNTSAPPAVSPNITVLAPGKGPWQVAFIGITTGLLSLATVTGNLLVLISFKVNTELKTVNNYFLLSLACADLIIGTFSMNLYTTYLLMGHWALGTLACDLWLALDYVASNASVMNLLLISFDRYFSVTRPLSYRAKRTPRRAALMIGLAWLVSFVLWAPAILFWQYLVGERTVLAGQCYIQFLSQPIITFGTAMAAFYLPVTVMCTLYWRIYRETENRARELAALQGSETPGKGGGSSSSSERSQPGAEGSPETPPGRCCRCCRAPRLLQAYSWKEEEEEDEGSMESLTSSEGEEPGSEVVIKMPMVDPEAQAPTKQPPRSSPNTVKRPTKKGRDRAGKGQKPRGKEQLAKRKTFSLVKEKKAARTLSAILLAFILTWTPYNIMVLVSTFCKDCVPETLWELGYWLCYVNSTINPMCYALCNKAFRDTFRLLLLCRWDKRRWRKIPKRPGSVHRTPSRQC

B2 bradykinin receptor = biological target: T6, B2 bradykinin receptor (Homo sapiens, UniProt P30411)
T6 sequence (P30411 whole entry): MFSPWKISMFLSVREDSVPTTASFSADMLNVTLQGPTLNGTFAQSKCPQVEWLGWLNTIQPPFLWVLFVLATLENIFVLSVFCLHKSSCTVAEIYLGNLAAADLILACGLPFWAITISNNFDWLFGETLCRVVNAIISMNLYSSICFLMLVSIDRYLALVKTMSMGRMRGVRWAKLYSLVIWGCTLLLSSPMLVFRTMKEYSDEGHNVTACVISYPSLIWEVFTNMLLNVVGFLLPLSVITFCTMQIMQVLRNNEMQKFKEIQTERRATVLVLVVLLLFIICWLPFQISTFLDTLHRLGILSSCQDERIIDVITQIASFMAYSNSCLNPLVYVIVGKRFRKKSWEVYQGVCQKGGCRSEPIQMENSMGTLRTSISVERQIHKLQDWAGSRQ

[8] = biological target: Kappa-type opioid receptor (Homo sapiens, UniProt P41145)
Kappa-type opioid receptor, sequence (P41145 whole entry): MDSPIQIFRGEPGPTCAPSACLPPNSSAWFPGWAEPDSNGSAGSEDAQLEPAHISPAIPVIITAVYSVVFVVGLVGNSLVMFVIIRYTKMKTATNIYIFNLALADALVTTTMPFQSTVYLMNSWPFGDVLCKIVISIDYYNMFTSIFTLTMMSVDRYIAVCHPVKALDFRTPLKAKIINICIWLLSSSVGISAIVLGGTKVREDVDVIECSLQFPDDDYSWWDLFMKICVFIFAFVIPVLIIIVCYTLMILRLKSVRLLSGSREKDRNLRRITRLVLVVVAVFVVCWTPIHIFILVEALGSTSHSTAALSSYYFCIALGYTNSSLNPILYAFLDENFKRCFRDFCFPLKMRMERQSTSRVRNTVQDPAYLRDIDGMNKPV
Also: assay procedure not described here.

Compound | AC50 [6] [µM] | AC50 [7] [µM] | other results
C#Cc1cccc(Nc2ncnc3cc(OCCOC)c(OCCOC)cc23)c1 [ERLOTINIB] | > 30 | 1.64 | AC50 [1]: > 30 µM; AC50 [2]: > 30 µM; AC50 [3]: 9.1 µM; AC50 [4]: > 30 µM; AC50 [5]: > 30 µM; AC50 (Adenosine receptor A2a): 18 µM
C[C@]12CC[C@@H]3c4ccc(O)cc4CC[C@H]3[C@@H]1CC[C@@H]2OC(=O)CCC1CCCC1 [ESTRADIOL CYPIONATE] | > 30 | > 30 | –
C[C@]12CCC(=O)C=C1CC[C@@H]1[C@@H]2[C@@H](O)C[C@@]2(C)[C@H]1CC[C@]2(O)C(=O)COC(=O)CCC(=O)O [HYDROCORTISONE HEMISUCCINATE ANHYDROUS] | > 30 | > 30 | –
N=C(N)NCc1cccc([123I])c1 [IOBENGUANE I 123] | 10.7 | > 30 | –
CC(C)(N)C(=O)N[C@H](Cc1c[nH]c2ccccc12)C(=O)N[C@H](Cc1c[nH]c2ccccc12)NC=O [MACIMORELIN] | > 30 | > 30 | –
C=C1c2c(Cl)ccc(O)c2C(=O)C2=C(O)[C@]3(O)C(=O)C(C(N)=O)=C(O)[C@@H](N(C)C)[C@@H]3[C@@H](O)[C@H]12 [MECLOCYCLINE] | > 30 | > 30 | –
Cc1cc2c(OCC(O)CNC(C)C)cccc2[nH]1 (stereo unspecified) [MEPINDOLOL] | > 30 | > 30 | –
CC(=O)/N=c1/sc(S(N)(=O)=O)nn1C [METHAZOLAMIDE] | > 30 | > 30 | AC50 [1]: > 10 µM; AC50 [2]: > 30 µM; AC50 [3]: > 10 µM; AC50 (B2 bradykinin receptor): > 10 µM; AC50 [8]: > 10 µM; AC50 [4]: > 10 µM; AC50 [5]: > 10 µM; AC50 (Adenosine receptor A2a): > 10 µM
CCCCCOc1ccc(-c2cc(-c3ccc(C(=O)N[C@H]4C[C@@H](O)[C@@H](O)NC(=O)[C@@H]5[C@@H](O)[C@@H](C)CN5C(=O)[C@H]([C@H](O)CC(N)=O)NC(=O)[C@H]([C@H](O)[C@@H](O)c5ccc(O)c(OS(=O)(=O)O)c5)NC(=O)[C@@H]5C[C@@H](O)CN5C(=O)[C@H]([C@@H](C)O)NC4=O)cc3)no2)cc1 [MICAFUNGIN] (X1-[Orn(4R-OH,5R-OH)]T[Hyp][hTyr(3S-OH,4S-OH,3'-OSO3H)][Gln(3R-OH)][Pro(3S-OH,4S-Me)]; lactam 1-C) | > 30 | > 30 | –
CCOc1ccc2ccccc2c1C(=O)N[C@@H]1C(=O)N2[C@@H]1SC(C)(C)[C@@H]2C(=O)O [NAFCILLIN] | > 30 | > 30 | –
C#C[C@]1(O)CC[C@H]2[C@@H]3CCC4=C(CCC(=O)C4)[C@H]3CC[C@@]21C [NORETHYNODREL] | 17.4 | […] | –
CCCCCCCCCCC[C@@H](C[C@@H]1OC(=O)[C@H]1CCCCCC)OC(=O)[C@H](CC(C)C)NC=O [ORLISTAT] | > 30 | > 30 | –
O=C1[C@H]2CCCC[C@H]2C(=O)N1CCCCN1CCN(c2nsc3ccccc23)CC1 [PEROSPIRONE] | 0.003 | > 30 | –
CN(C)CCC(c1ccccc1)c1ccccn1 (stereo unspecified) [PHENIRAMINE] | > 30 | > 30 | –
CC(C)COc1ccc(CNC(=O)N(Cc2ccc(F)cc2)C2CCN(C)CC2)cc1 [PIMAVANSERIN] | 11.4 | 29.9 | –
CC(C)(C)C(=O)NCCCC(=O)O [PIVAGABINE] | > 30 | > 30 | –
CC(C)[N+](C)(CCOC(=O)C1c2ccccc2Oc2ccccc21)C(C)C [PROPANTHELINE] | > 30 | > 30 | –
CN(C)C(=O)c1nc(CNC(=O)CN)n(-c2ccc(Cl)cc2C(=O)c2ccccc2Cl)n1 [RILMAZAFONE] | > 30 | > 30 | –
NC(=O)NS(=O)(=O)c1ccc(N)cc1 [SULFACARBAMIDE] | > 30 | > 30 | –
CC1(C)O[C@@H]2[C@@H](CO[C@@]3(COS(N)(=O)=O)OC(C)(C)O[C@@H]23)O1 [TOPIRAMATE] | > 30 | > 30 | AC50 [1]: > 30 µM; AC50 [2]: > 30 µM; AC50 [3]: > 30 µM; AC50 (B2 bradykinin receptor): > 30 µM; AC50 [8]: > 10 µM; AC50 [4]: > 10 µM; AC50 [5]: > 10 µM; AC50 (Adenosine receptor A2a): > 30 µM
NCCc1ccc(O)cc1 [TYRAMINE] | > 30 | > 30 | –
CCCCCCCCCCCCCCCC(=O)OC/C=C(C)/C=C/C=C(C)/C=C/C1=C(C)CCCC1(C)C [VITAMIN A PALMITATE] | > 30 | > 30 | –

— ChEMBL document CHEMBL5291721, “A preclinical secondary pharmacology resource illuminates target-adverse drug reaction associations of marketed drugs” (Nat Commun, 2023)
